According to patent US9603364B2 (Dow AgroSciences LLC, priority 2013, dated 2017):

Tests used:
Assay in all cases: General post-emergent herbicidal activity, foliar application
Type in all cases: in vivo
[1] = test system: Amaranthus retroflexus L. (pigweed, redroot)
Outline: (§1)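 Compounds in acetone/DMSO (97:3) were diluted into aqueous spray containing isopropyl alcohol, Atplus 411F crop oil and Triton X-155, then applied post-emergence to foliage at a top rate plus 1/2× to 1/16× serial dilutions. Injury was scored visually (0–100%) after 14 days in a sub-irrigated greenhouse versus untreated plants. GR20/GR50/GR80 were derived by probit analysis, with some GR80 values extrapolated from curve slope.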

[2] = test system: Echinochloa crus-galli (L.) Beauv. (barnyardgrass)
Outline: as §1

[3] = test system: Viola tricolor L. (pansy)
Outline: as §1

[4] = test system: Euphorbia heterophylla L. (poinsettia, wild)
Outline: as §1

[5] = test system: Chenopodium album L. (lambsquarters, common)
Outline: as §1

[6] = test system: Helianthus annuus L. (sunflower, common)
Outline: as §1

[7] = test system: Oryza sativa L. (rice); settings: Oryza sativa, 336 h, scored after 14 days, read-out: % Visual Growth Reduction ORYSA
Outline: (§2)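 Compounds in acetone/DMSO (97:3) diluted into aqueous spray with isopropanol, Atplus 411F crop oil and Triton X-155; top rate plus 1/2×–1/16× serial rates applied to foliage, solvent blank as control. Greenhouse, sub-irrigated; visual injury versus untreated plants scored 0–100% (100 = complete kill) after 14 days.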

[8] = test system: Zea mays L. (corn); settings: 336 h, scored after 14 days, read-out: % Visual Growth Reduction ZEAMX
Outline: as §2

[9] = calculated by probit analysis, dose for 80% visual injury, may be extrapolated

`Nc1c(F)c(CF)nc(C(=O)O)c1Cl` [Compound F36, 4-Amino-3-chloro-5-fluoro-6-(fluoromethyl)picolinic acid] showed a pest or weed control at 35 g/ha ([1]; Amaranthus retroflexus, 336 h, 35 g ai/ha, foliar post-emergent, scored after 14 days, read-out: % Visual Growth Reduction AMARE) of 100%, a pest or weed control at 70 g/ha ([1]; Amaranthus retroflexus, 336 h, 70 g ai/ha, foliar post-emergent, scored after 14 days, read-out: % Visual Growth Reduction AMARE) of 100% and a pest or weed control at 140 g/ha ([1]; Amaranthus retroflexus, 336 h, 140 g ai/ha, foliar post-emergent, scored after 14 days, read-out: % Visual Growth Reduction AMARE) of 100%. The pest or weed control at 280 g/ha ([1]; Amaranthus retroflexus, 336 h, 280 g ai/ha, foliar post-emergent, scored after 14 days, read-out: % Visual Growth Reduction AMARE) was 100%, the “GR80 Value AMARE” value [1, 9] was less than 17.5 g ai/ha and the pest or weed control at 35 g/ha ([2]; Echinochloa crus-galli, 336 h, 35 g ai/ha, foliar post-emergent, scored after 14 days, read-out: % Visual Growth Reduction ECHCG) was 50%. It also gave a pest or weed control at 70 g/ha ([2]; Echinochloa crus-galli, 336 h, 70 g ai/ha, foliar post-emergent, scored after 14 days, read-out: % Visual Growth Reduction ECHCG) of 50%, a pest or weed control at 140 g/ha ([2]; Echinochloa crus-galli, 336 h, 140 g ai/ha, foliar post-emergent, scored after 14 days, read-out: % Visual Growth Reduction ECHCG) of 80% and a pest or weed control at 280 g/ha ([2]; Echinochloa crus-galli, 336 h, 280 g ai/ha, foliar post-emergent, scored after 14 days, read-out: % Visual Growth Reduction ECHCG) of 95%. For the same molecule, the “GR80 Value ECHCG” value [2, 9] was 132 g ai/ha, the pest or weed control at 35 g/ha ([3]; Viola tricolor, 336 h, 35 g ai/ha, foliar post-emergent, scored after 14 days, read-out: % Visual Growth Reduction VIOTR) was 10% and the pest or weed control at 70 g/ha ([3]; Viola tricolor, 336 h, 70 g ai/ha, foliar post-emergent, scored after 14 days, read-out: % Visual Growth Reduction VIOTR) was 20%. The pest or weed control at 140 g/ha ([3]; Viola tricolor, 336 h, 140 g ai/ha, foliar post-emergent, scored after 14 days, read-out: % Visual Growth Reduction VIOTR) was 80%, the pest or weed control at 280 g/ha ([3]; Viola tricolor, 336 h, 280 g ai/ha, foliar post-emergent, scored after 14 days, read-out: % Visual Growth Reduction VIOTR) was 75% and the “GR80 Value VIOTR” value [3, 9] was 246 g ai/ha. It also gave a pest or weed control at 35 g/ha ([4]; Euphorbia heterophylla, 336 h, 35 g ai/ha, foliar post-emergent, scored after 14 days, read-out: % Visual Growth Reduction EPHHL) of 100%, a pest or weed control at 70 g/ha ([4]; Euphorbia heterophylla, 336 h, 70 g ai/ha, foliar post-emergent, scored after 14 days, read-out: % Visual Growth Reduction EPHHL) of 100% and a pest or weed control at 140 g/ha ([4]; Euphorbia heterophylla, 336 h, 140 g ai/ha, foliar post-emergent, scored after 14 days, read-out: % Visual Growth Reduction EPHHL) of 100%. For the same molecule, the pest or weed control at 280 g/ha ([4]; Euphorbia heterophylla, 336 h, 280 g ai/ha, foliar post-emergent, scored after 14 days, read-out: % Visual Growth Reduction EPHHL) was 100%, the “GR80 Value EPHHL” value [4, 9] was less than 17.5 g ai/ha and the pest or weed control at 35 g/ha ([5]; Chenopodium album, 336 h, 35 g ai/ha, foliar post-emergent, scored after 14 days, read-out: % Visual Growth Reduction CHEAL) was 80%. The pest or weed control at 70 g/ha ([5]; Chenopodium album, 336 h, 70 g ai/ha, foliar post-emergent, scored after 14 days, read-out: % Visual Growth Reduction CHEAL) was 100%, the pest or weed control at 140 g/ha ([5]; Chenopodium album, 336 h, 140 g ai/ha, foliar post-emergent, scored after 14 days, read-out: % Visual Growth Reduction CHEAL) was 100% and the pest or weed control at 280 g/ha ([5]; Chenopodium album, 336 h, 280 g ai/ha, foliar post-emergent, scored after 14 days, read-out: % Visual Growth Reduction CHEAL) was 100%. For the same molecule, the “GR80 Value CHEAL” value [5, 9] was 36.1 g ai/ha, the pest or weed control at 35 g/ha ([6]; Helianthus annuus, 336 h, 35 g ai/ha, foliar post-emergent, scored after 14 days, read-out: % Visual Growth Reduction HELAN) was 70% and the pest or weed control at 70 g/ha ([6]; Helianthus annuus, 336 h, 70 g ai/ha, foliar post-emergent, scored after 14 days, read-out: % Visual Growth Reduction HELAN) was 80%. The pest or weed control at 140 g/ha ([6]; Helianthus annuus, 336 h, 140 g ai/ha, foliar post-emergent, scored after 14 days, read-out: % Visual Growth Reduction HELAN) was 85%, the pest or weed control at 280 g/ha ([6]; Helianthus annuus, 336 h, 280 g ai/ha, foliar post-emergent, scored after 14 days, read-out: % Visual Growth Reduction HELAN) was 90% and the “GR80 Value HELAN” value [6, 9] was 70 g ai/ha. The plant injury at 35 g/ha ([7]; 35 g ai/ha) was 0%, the plant injury at 70 g/ha ([7]; 70 g ai/ha) was 10% and the plant injury at 140 g/ha ([7]; 140 g ai/ha) was 20%. The plant injury at 280 g/ha ([7]; 280 g ai/ha) was 30%, the plant injury at 35 g/ha ([8]; 35 g ai/ha) was 0% and the plant injury at 70 g/ha ([8]; 70 g ai/ha) was 20%. The plant injury at 140 g/ha ([8]; 140 g ai/ha) was 40% and the plant injury at 280 g/ha ([8]; 280 g ai/ha) was 70%.
`COC(=O)c1nc(C(C)CF)c(F)c(N)c1Cl` (stereo not shown) [Compound F37, methyl 4-amino-3-chloro-5-fluoro-6-(1-fluoropropan-2-yl)picolinate] was tested, and the pest or weed control at 132 g/ha ([1]; Amaranthus retroflexus, 336 h, 132 g ai/ha, foliar post-emergent, scored after 14 days, read-out: % Visual Growth Reduction AMARE) was 50%, the pest or weed control at 132 g/ha ([2]; Echinochloa crus-galli, 336 h, 132 g ai/ha, foliar post-emergent, scored after 14 days, read-out: % Visual Growth Reduction ECHCG) was 0% and the pest or weed control at 132 g/ha ([3]; Viola tricolor, 336 h, 132 g ai/ha, foliar post-emergent, scored after 14 days, read-out: % Visual Growth Reduction VIOTR) was 0%. It also gave a pest or weed control at 132 g/ha ([4]; Euphorbia heterophylla, 336 h, 132 g ai/ha, foliar post-emergent, scored after 14 days, read-out: % Visual Growth Reduction EPHHL) of 100%, a pest or weed control at 132 g/ha ([5]; Chenopodium album, 336 h, 132 g ai/ha, foliar post-emergent, scored after 14 days, read-out: % Visual Growth Reduction CHEAL) of 0% and a pest or weed control at 132 g/ha ([6]; Helianthus annuus, 336 h, 132 g ai/ha, foliar post-emergent, scored after 14 days, read-out: % Visual Growth Reduction HELAN) of 80%. For the same molecule, the plant injury at 132 g/ha ([7]; 132 g ai/ha) was 0% and the plant injury at 132 g/ha ([8]; 132 g ai/ha) was 0%.
